Results published in US8058243B2, “Method for treating a brain cancer with ifenprodil” (HSC Research and Development Limited Partnership, priority 2006, dated 2011).
Structures can show the parent of a compound that is named as a salt. Where two headings read alike, the source gives them in different places.

System: murine neural precursor cells (neurosphere cultures)
Assay: HTS of LOPAC library against secondary neurosphere cultures, MTT proliferation assay at 3 μM, day 7 (z score, P value)
Format: cell-based, mouse
[1] = LOPAC primary screen, neurosphere MTT proliferation, 3 μM, day 7
[2] = yes = significantly inhibited neurosphere proliferation (P<0.01) in the primary screen
[3] = yes/no: significantly inhibited neurosphere proliferation (P<0.01) in the primary screen
[4] = LOPAC library screen at 3 μM, secondary neurosphere cultures, MTT
[5] = yes/no: significantly inhibited neurosphere proliferation in primary screen
[6] = yes/no: significantly inhibited neurosphere proliferation in the primary screen
[7] = LOPAC screen, neurosphere MTT proliferation, 3 μM, day 7
[8] = LOPAC library screen, 3 μM, MTT, secondary neurosphere cultures, day 7
[9] = primary LOPAC screen, 3 μM, MTT, neurosphere proliferation
[10] = yes/no: significantly inhibited neurosphere proliferation (P<0.01) in primary screen
[11] = LOPAC library screen, 3 μM, MTT, neurosphere cultures

SMILES: CCS(=O)(=O)Nc1cccc(C(=C2CCCCC2)c2cnc[nH]2)c1 [A-315456]
- Z Score: 0.3628
- Z score [1]: 0.363
- Activity [2]: no

SMILES: CNc1ncnc2c1ncn2[C@H]1C[C@H](OP(=O)(O)O)[C@@H](COP(=O)(O)O)O1 [MRS 2179]
- Z Score: −1.246
- Z score [1]: −1.246
- Activity [2]: no

SMILES: CCN(CC)CCNC(=O)c1cc(Cl)c(N)cc1OC [Metoclopramide hydrochloride]
- Z Score (168 h, 3 µM): −1.992
- Z score (168 h, 3 µM): −1.992
- Activity [3]: no

SMILES: CC(=O)O.CSC(=N)NCCC[C@H](N)C(=O)O [S-Methyl-L-thiocitrulline acetate]
- Z Score: −1.751
- Z score [1]: −1.751
- Activity [2]: no

SMILES: Cc1nc2sccn2c(=O)c1CCN1CCC(=C(c2ccc(F)cc2)c2ccc(F)cc2)CC1 [Ritanserin]
- Z Score [4]: −0.6957
- Z score [1]: −0.696
- Activity [5]: no

SMILES: CCN(CC)C(C)C(=O)N1c2ccccc2Sc2ccccc21 (stereo not drawn) [10-(alpha-Diethylaminopropionyl)-phenothiazine]
- Z score [1]: −1.545
- Activity [3]: no

SMILES: NC1CCN(O)C1=O (centres unmarked) [(B1)-HA-966]
- Z Score: 1.157

SMILES: CCCn1c(=O)c2[nH]c(-c3ccc(S(=O)(=O)O)cc3)nc2n(CCC)c1=O [1,3-Dipropyl-8-p-sulfophenylxanthine]
- Z Score: 4.743
- Z score: 4.743
- Activity [6]: no

SMILES: CCCN(CCC)CCc1ccc(O)c(O)c1 [Dipropyldopamine hydrobromide]
- Z Score: −1.346
- Z score [7]: −1.346

SMILES: CC(=O)CCCCn1c(=O)c2c(ncn2C)n(C)c1=O [Pentoxifylline]
- Z Score [8]: −1.637
- Z score [1]: −1.637
- Activity [5]: no

SMILES: CN/C(=N\c1ccc(C2=NNC(=O)CC2C)cc1)NC#N (centres unmarked) [SKF 94836]
- Z Score: 0.2458
- Z score [1]: 0.246
- Activity [5]: no

SMILES: CN1[C@@H]2CC[C@H]1C[C@@H](OC(c1ccccc1)c1ccccc1)C2 [Benztropine mesylate]
- Z Score [8]: −3.749
- Z score [1]: −3.749
- Activity [3]: yes

SMILES: C[C@]12CCC(=O)C=C1CC[C@@H]1[C@@H]2CC[C@]2(C)C(=O)CC[C@@H]12 [4-Androstene-3,17-dione]
- Z Score: −0.6917
- Z score [9]: −0.692
- Activity [6]: no

SMILES: CC1=C(/C=C/C(C)=C/C=C/C(C)=C/C(=O)O)C(C)(C)CCC1 [Retinoic acid]
- Z Score [4]: −0.8657
- Z score [1]: −0.866

SMILES: COc1ccc2[nH]c3c(c2c1)CCNC3
- Z Score: −2.661

SMILES: COc1ccc2[nH]cc(CCNC(C)=O)c2c1 [Melatonin]
- Z Score [4]: −0.2407
- Z score [1]: −0.241
- Activity [2]: no

SMILES: CCC(C)N(C)C(=O)c1cc2ccccc2c(-c2ccccc2Cl)n1 (centres unmarked) [PK 11195]
- Z Score (168 h, 3 µM): −0.4676
- Z score (168 h, 3 µM): −0.468
- Activity [10]: no

SMILES: CN(Cc1cnc2nc(N)nc(N)c2n1)c1ccc(C(=O)N[C@@H](CCC(=O)O)C(=O)O)cc1 [Methotrexate]
- Z Score [8]: −10.2
- Z score [1]: −10.203
- Activity [3]: yes

SMILES: COc1cc(CC(=O)O)ccc1O [4-Hydroxy-3-methoxyphenylacetic acid]
- Z Score: −0.5673
- Z score [1]: −0.567
- Activity [10]: no

SMILES: Cc1c2ccncc2c(C)c2c1[nH]c1ccccc12 [Ellipiticine]
- Z score [1]: −8.321
- Activity [2]: yes

SMILES: OC(CCN1CCCCC1)(c1ccccc1)C1CCCCC1 (centres unmarked) [Trihexyphenidyl hydrochloride]
- Z Score [11]: 1.215

SMILES: COc1cc(C(=O)OCCCN2CCCN(CCCOC(=O)c3cc(OC)c(OC)c(OC)c3)CC2)cc(OC)c1OC [Dilazep hydrochloride]
- Z Score [11]: 0.2448
- Z score [7]: 0.245
- Activity [10]: no

SMILES: C[Se]C[C@H](N)C(=O)O.Cl [Se-(methyl)selenocysteine hydrochloride]
- Z Score: 0.4116
- Z score [1]: 0.412
- Activity [2]: no

SMILES: Clc1ccccc1C(c1ccccc1)(c1ccccc1)n1ccnc1 [Clotrimazole]
- Z Score [4]: −0.7158
- Z score [7]: −0.716
- Activity [10]: no

SMILES: Cl.NCCCCC(=O)O [5-Aminovaleric acid hydrochloride]
- Z Score (168 h, 3 µM): −1.67
- Z score (168 h, 3 µM): −1.670
- Activity [5]: no

SMILES: COc1cc(-c2ccc(=O)[nH]n2)ccc1OC(F)F [Zardaverine]
- Z Score [4]: −0.3412
- Z score [9]: −0.341

SMILES: Cc1c(OCC(F)(F)F)ccnc1C[S+]([O-])c1nc2ccccc2[nH]1 (centres unmarked) [Lansoprazole]
- Z Score [11]: −0.0336
- Z score [1]: −0.034
- Activity [10]: no

SMILES: CC(CCc1ccc(O)cc1)NCCc1ccc(O)c(O)c1 (centres unmarked) [Dobutamine hydrochloride]
- Z Score [11]: 0.3185
- Z score [7]: 0.319
- Activity [10]: no

SMILES: CCN(CC)CCOC(=O)C1(C2CCCCC2)CCCCC1 [Dicyclomine hydrochloride]
- Z Score (168 h, 3 µM): 1.414
- Z score (168 h, 3 µM): 1.414

SMILES: CN(C)CCOC(c1ccccc1)c1ccccc1 [Diphenhydramine hydrochloride]
- Z Score [11]: 0.8449
- Z score [1]: 0.845
- Activity [3]: no

SMILES: CCCN1CCc2cc(O)cc3c2[C@H]1Cc1ccc(O)c(O)c1-3
- Z score [1]: −2.744
- Activity [3]: yes

SMILES: Cl.Cl.NCCSSCCN [Cystamine dihydrochloride]
- Z Score: 2.23
- Z score [7]: 2.230
- Activity [10]: no

SMILES: O=[N+]([O-])c1cccc2cn[nH]c12 [7-Nitroindazole (34), 7-Nitroindazole, reference compound]
- Z Score: −1.349
- Z score [1]: −1.349
- Activity [2]: no

SMILES: COc1ccc(C(=O)NCc2cccnc2)cc1C(=O)NCc1cccnc1 [Picotamide]
- Z Score (LOPAC library screen at 3 μM, MTT, secondary neurosphere cultures, screened in singlets): 1.736
- Z score [1]: 1.736
- Activity [5]: no

SMILES: CCCN(CCC)[C@@H]1CCc2c(F)ccc(O)c2C1.Cl [R(+)-UH-301 hydrochloride]
- Z Score: −2.517
- Z score [1]: −2.517
- Activity [3]: yes

SMILES: O=C1NCC2(CCN(CCc3ccccc3)CC2)O1 [Fenspiride hydrochloride]
- Z Score [4]: −0.5762
- Z score [1]: −0.576
- Activity [10]: no

SMILES: CCOC(=O)C1=C(C)NC(=S)NC1c1cccc(O)c1 (centres unmarked) [Monastrol]
- Z Score (168 h, 3 µM): −1.162
- Z score (168 h, 3 µM): −1.162

SMILES: C=CC(N)CCC(=O)O (centres unmarked) [(B1)-gamma-Vinyl GABA]
- Z Score: −0.701

SMILES: CCCCCCCCCCCCCCCC(=O)OC(CC(=O)O)C[N+](C)(C)C.[Cl-] (racemic) [Palmitoyl-DL-Carnitine chloride]
- Z Score: 0.1995

SMILES: CC(=O)S[C@@H]1CC2=CC(=O)CC[C@]2(C)[C@H]2CC[C@@]3(C)[C@@H](CC[C@@]34CCC(=O)O4)[C@H]12 [Spironolactone]
- Activity: no
- Z Score [4]: −0.5258
- Z score [1]: −0.526

SMILES: Oc1cc(O)cc(/C=C/c2ccc(O)c(O)c2)c1 [Piceatannol]
- Z Score (168 h, 3 µM): 0.5958
- Z score (168 h, 3 µM): 0.596

SMILES: Cl.OCc1c[nH]cn1 [4-Imidazolemethanol hydrochloride]
- Z Score: −2.077
- Z score [1]: −2.077
- Activity [10]: no

SMILES: O=C(O)CC[N+](=O)[O-] [3-Nitropropionic acid]
- Z Score: −0.5631
- Z score [1]: −0.563
- Activity [2]: no

SMILES: COc1ccc(C2CNC(=O)C2)cc1OC1CCCC1 (centres unmarked) [Rolipram]
- Z Score [8]: −2.091
- Z score [1]: −2.091
- Activity [5]: no
